Read-outs that look alike come from different tables or passages of the source.
Columns and labels:
[1] = biological target: T1, Recombinant human PKC-theta (His-tagged 362-706) (Homo sapiens, UniProt Q04759); assay: PKC-theta inhibition assay (HTRF KinEASE kit); assay type: biochemical; conditions: ATP 6.5 μM, STK substrate 525 nM
T1 construct: Recombinant human PKC-theta (His-tagged 362-706); His
Procedure: PKC-theta and PKC-delta biochemical activities were measured using the PKC-theta HTRF KinEASEkit kit, according to manufacturer's instructions (Cisbio, catalogue number 61ST1PEJ). Briefly, the kinase buffer component of the kit was supplemented with 10 mM MgCl2, 1 mM DTT and 0.1% Tween 20. […] The streptavidin_XL665 and STK antibody-cryptate detection reagents were mixed according to the manufacturer's instructions. Test compounds were diluted in DMSO in a series of 10 semi-log step doses; 10 nL of each compound dose were dispensed in 384 well plates. […] The reaction was started by addition of the substrate and ATP and incubated at 25° C. for 30 minutes or 20 minutes for the PKC-theta and PKC-delta assays, respectively. The detection reagents were added, and the plate was incubated in the dark for 2 hours. […] The ratio of acceptor and donor emission signals was calculated for each well. Percent inhibition values were calculated from the HTRF ratios at different doses and fitted to a 4-parameter logistic curve to determine IC50 values (see Table 2).

[2] = biological target: T2, Recombinant human PKC-delta (His-tagged 345-676) (Homo sapiens, UniProt Q05655); assay: PKC-delta inhibition assay (HTRF KinEASE kit); assay type: biochemical; conditions: ratio, PKC-theta vs PKC-delta HTRF; for PKC-theta/PKC-delta selectivity (binned): binned A to G
T2 construct: PKC-delta (His-tagged 345-676); His

[3] = test system: IL-2 secretion by human effector memory T cells (TEM); assay: Effector memory T cells IL-2 release assay (CD3/CD28 stimulation, HTRF IL-2 detection); assay type: cell-based; conditions: 24 h; for IC50: Homo sapiens, T-cell
Procedure: Test compound-mediated inhibition of NFκB signalling in T cells was assessed by quantification of the IL-2 secretion by human effector memory T cells (TEM) upon treatment and stimulation. Human TEM cells were isolated from buffy coats of healthy donors obtained from the French blood bank.
Finally, 10 doses of test compound, originally prepared in DMSO by serial semi-log step dilution, were also added to cells in triplicate wells. Final DMSO concentration in wells was 0.1% in a total volume of 100 μL complete medium. Plates were incubated for 24 h at 37° C. in 5% CO2 atmosphere. After incubation, cell suspensions were centrifuged at 400×g and culture supernatants were recovered and stored at −80° C. […] IL-2 levels were determined in cell supernatants using an HTRF human IL-2 detection kit (Cisbio, cat #62HIL02PEH).

[4] = binned A to H, read-out: PKC-theta HTRF pIC50 (binned) (converted)
[5] = read-out: PKC-theta HTRF pIC50 (converted)
[6] = binned A to G, read-out: PKC-theta IL2 pIC50 (binned) (converted)
[7] = read-out: PKC-theta IL2 pIC50 (converted)

T1 sequence (Q04759 362-706): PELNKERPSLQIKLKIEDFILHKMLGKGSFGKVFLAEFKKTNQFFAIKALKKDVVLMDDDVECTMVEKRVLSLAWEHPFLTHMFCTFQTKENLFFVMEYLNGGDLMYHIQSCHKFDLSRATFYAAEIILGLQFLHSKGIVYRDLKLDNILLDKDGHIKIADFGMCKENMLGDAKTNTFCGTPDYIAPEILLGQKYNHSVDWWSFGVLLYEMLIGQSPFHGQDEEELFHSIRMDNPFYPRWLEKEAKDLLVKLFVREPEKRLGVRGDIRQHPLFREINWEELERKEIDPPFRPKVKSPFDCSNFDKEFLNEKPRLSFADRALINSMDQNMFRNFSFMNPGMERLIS
T2 sequence (Q05655 345-676): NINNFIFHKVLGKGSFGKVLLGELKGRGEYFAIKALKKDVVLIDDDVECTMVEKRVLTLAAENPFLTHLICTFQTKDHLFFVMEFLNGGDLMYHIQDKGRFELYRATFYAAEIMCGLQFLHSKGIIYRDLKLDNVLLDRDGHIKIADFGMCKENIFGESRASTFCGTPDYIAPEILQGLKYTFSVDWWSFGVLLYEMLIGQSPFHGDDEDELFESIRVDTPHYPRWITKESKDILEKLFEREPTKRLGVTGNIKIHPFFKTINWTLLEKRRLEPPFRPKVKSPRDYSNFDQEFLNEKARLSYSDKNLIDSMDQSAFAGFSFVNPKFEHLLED

Compound	IC50 [1, 4]	IC50 [1, 5]	PKC-theta/PKC-delta selectivity [2]	PKC-theta/PKC-delta selectivity (binned) [2]	IC50 [3, 6]	IC50 [3, 7]	PKC-theta IL2 pIC50 (binned) ([3]; binned A to G)
O=c1[nH]c2nccc(-c3cc(Cl)cc(N4CCNCC4)c3)c2[nH]1 [Example 10]	316 to 1000 nM	316 nM	1	F (a ratio of between 1 and 5)	> 1000 nM	2000 nM	
C[C@@H]1CCN(c2cc(C(F)(F)F)cc(-c3ccnc4c3C(C)(C)C(=O)N4)n2)CCN1 [Example 184]	10 to 31.6 nM	10 nM	20	C (a ratio of between 20 and 30)	100 to 316 nM	251 nM	
CC1(C)C(=O)Nc2nccc(-c3cccc(N(CC4COC4)C4CCCNC4)c3)c21 (stereo not shown) [Example 26]	100 to 316 nM	158 nM	2	F (a ratio of between 1 and 5)	> 1000 nM	2510 nM	
CC(c1cccc(-c2ccnc3[nH]c(=O)[nH]c23)c1)N(C)C (stereo not shown) [Example 1]	316 to 1000 nM	501 nM	1	F (a ratio of between 1 and 5)	> 1000 nM	10000 nM	
CC1(C)C(=O)Nc2nccc(-c3cc(Cl)cc(N4CCNCC4)c3)c21 [Example 40]	31.6 to 100 nM	31.6 nM	4	F (a ratio of between 1 and 5)	316 to 1000 nM	398 nM	
C[C@@H]1CN(c2cc(C(F)(F)F)cc(-c3ccnc4c3[C@](C)(O)C(=O)N4)n2)[C@@H](C)CN1 (single isomer, unassigned) [Example 118]	10 to 31.6 nM	25.1 nM	12	D (a ratio of between 10 and 20)	100 to 316 nM	251 nM	
C[C@@]1(O)C(=O)Nc2nccc(-c3cc(Cl)cc(N4CCNCC(F)C4)n3)c21 (single isomer, unassigned) [Example 91]	3.16 to 10 nM	6.31 nM	6	E (a ratio of between 5 and 10)	100 to 316 nM	200 nM	
CO[C@]1(C)C(=O)Nc2nccc(-c3cc(C(C)(F)F)cc(N4CCNC[C@H]4C)n3)c21 (single isomer, unassigned) [Example 193]	3.16 to 10 nM	10 nM	16	D (a ratio of between 10 and 20)	31.6 to 100 nM	79.4 nM	
C[C@@H]1CNCCN(c2cc(C(F)(F)F)cc(-c3ccnc4c3C(C)(C)C(=O)N4)n2)C1 [Example 182]	3.16 to 10 nM	7.94 nM	25	C (a ratio of between 20 and 30)	100 to 316 nM	158 nM	
CC1(C)C(=O)Nc2nccc(-c3cc(C(F)(F)F)cc(NC4CCNC4)n3)c21 (stereo not shown) [Example 100]	31.6 to 100 nM	63.1 nM	30	B (a ratio of between 30 and 50)	> 1000 nM	5010 nM	
C[C@H]1NCCN(c2cc(C(F)(F)F)cc(-c3ccnc4c3C(C)(C)C(=O)N4)n2)[C@H]1C [Example 127]	1 to 3.16 nM	1.26 nM	15	D (a ratio of between 10 and 20)		25.1 nM	C (a measured pIC50 of between 7.5 and 8.0)
CC[C@@]1(C)C(=O)Nc2nccc(-c3cc(C(F)(F)F)cc(N4CCN[C@@H](C)C4)n3)c21 (single isomer, unassigned) [Example 154]	3.16 to 10 nM	7.94 nM	19	D (a ratio of between 10 and 20)	100 to 316 nM	126 nM	
C[C@@H]1CNCCN1c1cc(C(F)(F)F)cc(-c2ccnc3c2[C@](C)(O)C(=O)N3)n1 (single isomer, unassigned) [Example 94]	1 to 3.16 nM	2 nM	9	E (a ratio of between 5 and 10)	10 to 31.6 nM	20 nM	
CC1C(=O)Nc2nccc(-c3cc(N4CCNCC4)cc(C(F)(F)F)c3)c21 (stereo not shown) [Example 25]	31.6 to 100 nM	50.1 nM	7	E (a ratio of between 5 and 10)	316 to 1000 nM	501 nM	
C[C@H]1CN(c2cc(-c3ccnc4c3C(C)(O)C(=O)N4)cc(C(F)(F)F)c2)CCN1 (stereo partly shown) [Example 78]	10 to 31.6 nM	15.8 nM	11	D (a ratio of between 10 and 20)	100 to 316 nM	158 nM	
CCC1(O)C(=O)Nc2nccc(-c3cc(C(F)(F)F)cc(N4CCNC[C@H]4C)n3)c21 (stereo partly shown) [Example 131]	3.16 to 10 nM	3.98 nM	6	E (a ratio of between 5 and 10)	31.6 to 100 nM	39.8 nM	
C[C@@H]1CN(c2cc(Cl)cc(-c3ccnc4c3C(C)(O)C(=O)N4)c2)CCN1 (stereo partly shown) [Example 76]	31.6 to 100 nM	50.1 nM	11	D (a ratio of between 10 and 20)	316 to 1000 nM	794 nM	
C[C@@]1(O)C(=O)Nc2nccc(-c3cc(C(F)(F)F)cc(N4CCNC5CC54)n3)c21 (single isomer, unassigned) [Example 96]	3.16 to 10 nM	5.01 nM	10	E (a ratio of between 5 and 10)	100 to 316 nM	200 nM	
O=c1[nH]c2nccc(-c3ccnc(N4CCNCC4)c3)c2[nH]1 [Example 13]	316 to 1000 nM	398 nM			> 1000 nM	10000 nM	
C[C@H]1CN(c2cc(Cl)cc(-c3ccnc4c3C(C)(O)C(=O)N4)n2)CCN1 (stereo partly shown) [Example 74]			12	D (a ratio of between 10 and 20)			
CC[C@@]1(C)C(=O)Nc2nccc(-c3cc(Cl)cc(N4CCN[C@@H](C)C4)n3)c21 (single isomer, unassigned) [Example 170]	3.16 to 10 nM	6.31 nM			100 to 316 nM	100 nM	

From patent US20260035367A1 (Celgene Corporation, priority 2021, published 2026)
